Results as given in US20230190697A1, “METHODS FOR TREATING VIRAL INFECTIONS WITH NAFAMOSTAT” (priority 2020, published 2023).
Several values for one entry are separate records, joined by “and”; a condition that tells them apart may be missing. Equal entries are not always repeated. Entries after “also recorded” stand apart in the source; their conditions may differ. Where two headings read alike, the source gives them in different places.

Experiments:
[1] = Pharmacokinetics of nafamostat in male rats (whole blood, LC/MS/MS); type: in vivo
Protocol: Example 1: Pharmacokinetic Studies. The pharmacokinetics of nafamostat were evaluated in male rats following an intravenous dose of 1 mg/kg or an oral dose of 9 mg/kg or 10 mg/kg. Nafamostat whole blood concentrations were determined by LC/MS/MS. Following intravenous dosing, nafamostat appeared in the blood of rats, with average (± SD) maximum whole blood concentrations (189 ± 54 ng/mL) being reached at the first measured time point (0.0830 hours) in all animals. […] The AUC0-t was 81.8 ± 29 ng̬·h/mL. The pharmacokinetic parameters were generated using a standard, non-compartmental model. Note that the half-life reported in this section is the terminal half-life and the alpha phase half-life is much shorter (estimated to be about 3 minutes).
After oral dosing, nafamostat appeared in the blood for the majority of the rats, with the whole blood concentrations being low and transient. The average (± SD) maximum plasma concentrations were 6.40 ± 6.2 ng/mL and 6.09 ± 3.6 ng/mL for the 9 mg/kg and 10 mg/kg doses, respectively, being reached between 0.250 hours and 0.500 hours. Due to the transient whole blood concentration-time profiles, the terminal t½ could not be calculated in the majority of the subjects but is approximated to be about 3 hours. The AUC0-t was 8.80 ng·h/mL (n=1) and 12.6 ± 11 ng·h/mL (n=3) for the two doses, respectively.

hERG K+ channel = hERG K+ channel (Homo sapiens, UniProt Q12809); assay: cell-based
Sequence of hERG K+ channel (Q12809 whole entry): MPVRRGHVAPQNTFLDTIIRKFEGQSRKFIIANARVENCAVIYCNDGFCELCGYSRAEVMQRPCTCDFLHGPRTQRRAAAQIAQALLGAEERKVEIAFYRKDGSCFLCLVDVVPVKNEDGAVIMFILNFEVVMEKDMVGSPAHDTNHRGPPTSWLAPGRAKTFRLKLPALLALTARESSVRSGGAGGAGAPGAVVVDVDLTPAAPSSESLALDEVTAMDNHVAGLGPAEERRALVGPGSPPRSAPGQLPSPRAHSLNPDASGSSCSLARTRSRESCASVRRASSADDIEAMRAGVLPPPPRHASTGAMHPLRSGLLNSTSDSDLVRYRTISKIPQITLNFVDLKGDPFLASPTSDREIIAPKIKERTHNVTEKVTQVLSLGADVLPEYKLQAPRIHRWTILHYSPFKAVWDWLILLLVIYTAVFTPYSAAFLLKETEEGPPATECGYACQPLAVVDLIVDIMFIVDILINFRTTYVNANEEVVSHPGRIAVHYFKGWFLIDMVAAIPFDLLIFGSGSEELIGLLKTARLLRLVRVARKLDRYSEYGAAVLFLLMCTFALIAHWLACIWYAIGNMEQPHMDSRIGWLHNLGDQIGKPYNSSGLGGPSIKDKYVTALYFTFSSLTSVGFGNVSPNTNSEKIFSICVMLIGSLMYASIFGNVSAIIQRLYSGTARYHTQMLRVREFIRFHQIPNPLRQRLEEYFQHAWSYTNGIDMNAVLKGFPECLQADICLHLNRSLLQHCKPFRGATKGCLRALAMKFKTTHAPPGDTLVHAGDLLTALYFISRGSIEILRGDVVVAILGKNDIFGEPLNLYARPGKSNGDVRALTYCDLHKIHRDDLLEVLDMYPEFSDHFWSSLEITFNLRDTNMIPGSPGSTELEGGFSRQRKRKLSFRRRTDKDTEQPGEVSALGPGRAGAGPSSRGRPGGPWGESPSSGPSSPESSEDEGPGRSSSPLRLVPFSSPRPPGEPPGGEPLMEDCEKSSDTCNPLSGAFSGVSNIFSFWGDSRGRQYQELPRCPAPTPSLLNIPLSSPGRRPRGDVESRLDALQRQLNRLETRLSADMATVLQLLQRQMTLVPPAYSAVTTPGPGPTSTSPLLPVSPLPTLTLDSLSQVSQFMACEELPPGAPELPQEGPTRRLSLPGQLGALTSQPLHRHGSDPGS
Protocol: Effects of nafamostat in an hERG assay: In an in vitro non-GLP screening study, effects of nafamostat on the hERG K^+ channel currents were evaluated in voltage-clamped human embryonic kidney cells at room temperature. […] A full ICH-Compliant hERG study and in vivo cardiovascular safety pharmacology study is be performed as part of the IND-enabling program.

[2] = tested on: S. typhimurium strains TA98, TA100, TA1535, and TA97a and Escherichia coli strain WP2uvrA76; assay: Bacterial Reverse Mutation (Ames) Screening Assay; type: cell-based; conditions: with or without S9, up to 25 mg/mL
Protocol: Bacterial Reverse Mutation (Ames) Screening Assay: This in vitro non-GLP study evaluated the cytotoxic and mutagenic activity of nafamostat in S. typhimurium strains TA98, TA100, TA1535, and TA97a and in the Escherichia coli (E. coli) strain WP2uvrA76. Two independent assays were conducted using the plate incorporation method with and without S9 metabolic activation. The highest concentration tested was 25 mg/mL. The vehicle control, sterile saline, was tested under the same conditions.

[3] = Pharmacokinetics of oral nafamostat mesylate solution in healthy male and female subjects; type: in vivo, human
Protocol: Part 1: Single Ascending Dose Study. Male and female subjects aged 18 - 70 were administered a single dose of 50 mg nafamostat mesylate on day 1, 100 mg nafamostat mesylate on day 3 or 4, and 200 mg nafamostat mesylate on day 5, 6, or 7. Nafamostat mesylate was administered in the form of an oral solution. […]
Part 2: Multiple Ascending Dose Study. Subjects were divided into 2 cohorts. Cohort 1 received an oral solution of 100 mg/mL nafamostat mesylate twice a day for 5 days with pharmacokinetic evaluations on each day. […] Safety evaluations continued for 48 hours after the last dose. After review and evidence of safety, Cohort 2 received an oral solution of 200 mg/mL nafamostat mesylate twice a day for 5 days with pharmacokinetic evaluations on each day. […] Safety evaluations continued for 48 hours after the last dose.
Part 3: Single Fixed Dose Administered Twice Daily for 5 Days. Six subjects, different than the subjects from Parts 1 and 2, received an oral solution of 200 mg/mL nafamostat mesylate twice a day for 5 days. Blood samples were obtained at pre-dose (0 hr.) and at 0.5, 1, 2, 3, 4, 6, and 8 hours after the first dose on Day 1 and again after the first dose on Day 5. […]
Oral solutions received by each subject were prepared by dissolving nafamostat mesylate in about 100 mL of EMETROL®/water and provided at a volume to deliver the indicated dosage. There was no placebo formulation.
Nafamostat pharmacokinetics was evaluated at the 200 mg dose levels.

[4] = tested on: healthy male and female subjects; assay: Safety and tolerability (adverse events) of oral nafamostat mesylate in healthy subjects; type: in vivo, human
Protocol: Part 1: Single Ascending Dose Study. Male and female subjects aged 18 - 70 were administered a single dose of 50 mg nafamostat mesylate on day 1, 100 mg nafamostat mesylate on day 3 or 4, and 200 mg nafamostat mesylate on day 5, 6, or 7. Nafamostat mesylate was administered in the form of an oral solution. Blood samples were obtained at pre-dose (0 hr.) and at 0.5, 1, 2, 3, 4, 6, 8, 12, and 24 hours after receiving the nafamostat mesylate oral solution.
Part 2: Multiple Ascending Dose Study. Subjects were divided into 2 cohorts. Cohort 1 received an oral solution of 100 mg/mL nafamostat mesylate twice a day for 5 days with pharmacokinetic evaluations on each day. Blood samples were obtained at pre-dose (0 hr.) and at 0.5, 1, 2, 3, 4, 6, 8, 12, and 24 hours after receiving the nafamostat mesylate oral solution as well as after the first dose on Day 5. Safety evaluations continued for 48 hours after the last dose. After review and evidence of safety, Cohort 2 received an oral solution of 200 mg/mL nafamostat mesylate twice a day for 5 days with pharmacokinetic evaluations on each day. Blood samples were obtained at pre-dose (0 hr.) and at 0.5, 1, 2, 3, 4, 6, 8, 12, and 24 hours after receiving the first dose of nafamostat mesylate oral solution as well as after the first dose on Day 5. Safety evaluations continued for 48 hours after the last dose.
Part 3: Single Fixed Dose Administered Twice Daily for 5 Days. Six subjects, different than the subjects from Parts 1 and 2, received an oral solution of 200 mg/mL nafamostat mesylate twice a day for 5 days. Blood samples were obtained at pre-dose (0 hr.) and at 0.5, 1, 2, 3, 4, 6, and 8 hours after the first dose on Day 1 and again after the first dose on Day 5.
Part 4: Single Ascending Dose Study. Three subjects were administered a single dose of an oral solution of 400 mg/mL nafamostat mesylate. After review and evidence of safety, a second set of three subjects received a single dose of an oral solution of 600 mg/mL nafamostat mesylate. Blood samples were obtained for pharmacokinetic analysis at pre-dose (0 hr.) and at 0.25, 0.5, 0.75, 1, 1.5, 2, 2.5, 3, 4, 6, and 8 hours after receiving the nafamostat mesylate dose.
Evaluations of subjects included incidence and severity of adverse events (AEs), vital signs (pulse rate, blood pressure, respiratory rate), 12-lead electrocardiogram, electrocardiogram telemetry or MCOT cardiac patch, continuous pulse oximetry, clinical laboratory tests (CBC-diff, complete metabolic panel including LFTs, PT, PTT), physical examination.

[5] = human, oral, 200 mg dose levels

## N=C(N)c1ccc2cc(OC(=O)c3ccc(N=C(N)N)cc3)ccc2c1 [nafamostat]
[1]; male rats, intravenous 1 mg/kg
  average (± SD) maximum whole blood concentration: 189 ± 54 ng/mL
  clearance: high and greater than hepatic blood flow in rats
  time of maximum whole blood concentration (first measured time point): 0.0830 h
[1]; male rats, oral 9 mg/kg
  average (± SD) maximum plasma concentration: 6.40 ± 6.2 ng/mL
[1]; male rats, oral 10 mg/kg
  average (± SD) maximum plasma concentration: 6.09 ± 3.6 ng/mL
[1]; male, rat, whole blood, iv, 1 mg/kg, male rats, intravenous 1 mg/kg, estimated, read-out: alpha phase half-life
  half-life: ~0.05 h
[1]; male, rat, whole blood, iv, 1 mg/kg, male rats, intravenous 1 mg/kg, non-compartmental, read-out: terminal t½ (converted)
  half-life: 1.84 ± 1.3 h
[1]; male, rat, whole blood, po, male rats, oral dosing, approximated, read-out: terminal t½ (converted)
  half-life: ~3 h
[1]; male, rat, whole blood, rats, oral vs intravenous, read-out: overall absolute oral bioavailability
  bioavailability: 1.16 ± 1.1%
[1]; rat, whole blood, male rats, intravenous 1 mg/kg
  AUC(0-t): 81.8 ± 29 ng·h/mL
[1]; rat, whole blood, male rats, oral 9 mg/kg (n=1)
  AUC(0-t): 8.8 ng·h/mL
[1]; rat, whole blood, male rats, oral 10 mg/kg (n=3)
  AUC(0-t): 12.6 ± 11 ng·h/mL
hERG K+ channel
  IC50: > 50 µM
[2]; any test strain
  mutagenic activity (mean number of revertants per plate): no positive increases in the mean number of revertants
[2]; plate incorporation
  cytotoxic activity: not cytotoxic
[3]; [5]
  PK measurements (nafamostat concentration), all except three samples, below LLQ: < 0.1 ng/mL
  nafamostat found in the two outlier samples taken after at least one daily dose: 0.125 ng/mL and 0.101 ng/mL
[3]; oral administration
  nafamostat detected in blood samples: No nafamostat was detected in blood samples
[3]; subjects administered oral nafamostat
  therapeutically-relevant blood plasma levels: Therapeutically-relevant blood plasma levels were not observed
[4]; human subjects, oral solution
  adverse events attributable to nafamostat: no adverse events that could be attributed to nafamostat reported
[4]; oral, up to 600 mg nafamostat mesylate
  adverse events: no adverse events are observed
[4]; per subject (12-17), adverse event
  Drug-Related?: No
[4]; per subject (12-17), oral nafamostat mesylate solution
  Adverse Event: Intermittent headache; also recorded: Thrush; also recorded: Tonsillitis right; also recorded: Right thigh redness, swelling; also recorded: Nausea; also recorded: Orthostatic tachycardia* *; also recorded: Chest pain (mild, intermittent)
[4]; per subject (12-17), severity of adverse event
  Severity: Mild (4×) and Moderate (3×)
